The record followed here is patent publication US12044651B2, “Sensor device and methods” (SCENTIAN BIO LIMITED, priority 2016, dated 2024).

For the test, the target named is T1, Or22a (Drosophila melanogaster, UniProt P81909).
T1 sequence (P81909 1-397): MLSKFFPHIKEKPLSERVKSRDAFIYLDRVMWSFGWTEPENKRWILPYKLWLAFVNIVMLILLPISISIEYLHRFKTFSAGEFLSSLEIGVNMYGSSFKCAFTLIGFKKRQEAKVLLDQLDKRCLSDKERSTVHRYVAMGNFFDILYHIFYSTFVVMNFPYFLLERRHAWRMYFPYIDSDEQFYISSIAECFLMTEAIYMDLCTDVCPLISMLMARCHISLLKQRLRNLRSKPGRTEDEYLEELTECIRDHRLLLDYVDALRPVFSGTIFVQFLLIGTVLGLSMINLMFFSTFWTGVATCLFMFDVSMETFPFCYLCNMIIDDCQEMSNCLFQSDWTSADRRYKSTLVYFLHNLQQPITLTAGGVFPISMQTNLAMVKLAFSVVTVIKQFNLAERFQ
Put plainly: CNT-FET sensor covalently functionalized with Or22a nanodiscs (Example 3). Type of test: binding. The method, then: The dispersion was sonicated until a clear solution was obtained. The temperature was kept at 25° C. throughout the sonication process. The thiolpyridine solution was prepared by dissolving 10 mg of 2-Mercaptopyridine (99%, Sigma Aldrich) in 1 ml of methanol. The solution was spun coated on a polydimethylsiloxane (PDMS) surface at 2000 rpm for one minute. Before the spin coating process, the PDMS surface was cleaned by a 50 W Oxygen plasma for 1 minute to improve the wettability. The cleaned substrates were placed upside down on the PDMS surface for three minutes and washed in ethanol to remove the excess thiolpyridine molecules. Then the substrates were transferred into the CNT suspension and immersed into the suspension for 10 minutes. The samples were removed from the suspension and dipped into Ethanol for another 10 minutes to remove the thiolpyridine molecules in the SWNT network. The alignment markers were deposited by defining the markers by photolithography and thermal evaporation of 5 nm Chromium and 50 nm of Gold. The metal Lift off was done by acetone immersion for 15 minutes followed by an Isopropyl alcohol (IPA) wash and N2 blow dry. The result is a uniform thin film CNT network covering the entire substrate surface. The purification procedure is a variation on the one detailed in […] et al. 2013^14. […] Purity was assessed on Coomassie stained SDS-PAGE gels and Western blotting. […]

As for `CCCCCC(=O)OC` [methyl hexanoate], the limit of detection result (nanodiscs 1:100 dilution) is reported as “below 1 fM”. Moreover, under “real time current measurement mode”, the “concentration at which clear electronic response starts” value is 1 fM.
